Laboratory results: patent US10301520B2, “Compositions of hydrochlorofluoroolefins” (Arkema Inc., priority 2008, dated 2019)

Tests used:
[1] = Vapor pressure in high-pressure cell; type: physicochemical
Description: A high-pressure cell equipped with a certified pressure gauge was evacuated by a vacuum pump to remove all permanent gases. 14.21 g of 1233xf and 9.17 g of E-1233zd were then loaded into the cell individually by a stainless steel syringe pump. The high-pressure cell was placed in an orbital shaker in which temperature was controlled at the accuracy of 0.1° C. […] At each temperature the pressure was measured after one hour in order to achieve equilibrium. The accuracy of the pressure gauge was + or −0.1 psia. […] The measured pressure can be seen in Table 1.

[2] = Defluxing of solder flux from stainless steel plates
Description: A small quantity of commercial solder flux was deposited on the surface of several 30×10 mm stainless steel plates. The mass of each plate was determined with a precision of 0.1 mg before deposition and corresponds to the tare. The plates were heated to 250° C. until fusion of the metal from the solder flux (between 1 and 2 min.). The metal could then be easily removed from the plates and only the flux remained on them.
The plates prepared with this method were dried in the open air at ambient temperature for 16 hours. The mass of each dried plate was determined with a precision of 0.1 mg before and after deposition. The difference between these two values corresponds to the initial mass of flux.
Once the initial mass was obtained, half of the steel plates are immersed in a beaker filled with a cleaning composition at ambient temperature for 30 minutes and the other half of the plates immersed in a beaker filled with the cleaning solution for 60 minutes. After the immersion, the steel plates were removed from the beakers and dried in the open air for 5 minutes. Thereafter, the mass of each plate was determined to evaluate the percentage of flux removed during the test.

[3] = Cleaning of silicone oil from stainless steel plates; settings: silicon oil; immersion 5 minutes at ambient temperature
Description: (§1) A small quantity of commercial lubricant oil was deposited on the surface of several 30×10 mm stainless steel plates. The mass of each plate was determined with a precision of 0.1 mg before and after deposition. The difference between these two values corresponds to the initial mass of lubricant.
(§2) Once the initial mass is obtained, each steel plate is immersed in a beaker filled with a cleaning composition at ambient temperature for 5 minutes. Thereafter, the steel plates were removed from the beaker and dried in the open air for 5 minutes. Thereafter, the mass of each plate was determined to evaluate the percentage of lubricant oil removed during the test.
A procedure similar to Example 5 was followed using silicon oil. The results were summarized as in Table 6

[4] = Cleaning of mineral oil from stainless steel plates; settings: immersion 5 minutes at ambient temperature
Description: as §1, §2
A procedure similar to Example 5 was followed using commercial natural mineral oil for high pressure.

[5] = Evaporator cleaning (flushing); settings: flushing 10 minutes at ambient temperature; compared with HFC-245fa
Description: An evaporator from a refrigeration system contains a known quantity of 300 SUS mineral oil. The evaporator could be flushed with flushing agent for 10 minutes at ambient temperature. Following the flushing period, the quantity of oil and residue removed would be determined. This could be done by measuring the weight of the evaporator following flushing and evacuation of flushing agent and/or by stripping the flushing agent from the removed oil and residue and weighing that. HFC-245fa and trans-HCFO-1233zd would be used as flushing agents.

AMES testing = type: cell-based; settings: compared with the cis isomer
Source text: A major portion of the HCFO-1233zd of the present invention is the trans isomer. […] A preferred ratio of trans and cis isomers of HCFO-1233zd is less than about 30% weight of the combination of the cis isomer, and preferably less than about 10% of the cis isomer. The most preferred ratio is less than about 3% of the cis isomer. […] The preferred Kauri-butanol value of the composition of the present invention is above 15 and preferably above 20.

[6] = Flash point, ASTM D3278-96; type: physicochemical
Source text: Flammability of a solvent is related to safety of its use. For most application, it is desirable that a solvent have as low a flammable as possible. The flammability of E-1233zd was characterized by flash point measured according to ASTM D3278-96. The flash point of TDCE and HCFC 225 were used as comparative examples.

[7] = Degreasing of lubricant oil from stainless steel plates; settings: immersion 5 minutes at ambient temperature
Description: as §1, §2

[8] = Residual flushing agent after drying of evaporator; settings: 25 °C, air flow, 10 minutes drying; compared with trans-HCFO-1233zd
Description: To a clean evaporator from an air conditioning, a measured quantity of flushing liquid would be added to simulate conditions following an open-loop evaporator flushing procedure. The evaporator would be maintained at 25° C. with a slow flow of air passing through the evaporator to assist in drying. The evaporator would be dried such as for 10 minutes and then weighed to measure the quantity of flushing agent remaining.

C=C(Cl)C(F)(F)F [1233xf, 2-chloro-3,3,3-trifluoropropene, reference compound]
Pressure ([1]; 5.0 °C): 11.5 psia | Pressure ([1]; 15.0 °C): 16.8 psia | Pressure ([1]; 18.5 °C): 18.3 psia | Pressure ([1]; 25.0 °C): 23.8 psia | Pressure ([1]; 35.0 °C): 32.7 psia | Pressure versus atmospheric pressure ([1]; temperature range 15 to 25 °C): > 14.7 psia

FC(F)(F)/C=C/Cl [E-1233zd, 1-chloro-3,3,3-trifluoropropene]
Removal rate for 30 mn ([2]; immersion 30 minutes at ambient temperature): 36.04% | Removal rate for 60 mn ([2]; immersion 60 minutes at ambient temperature): 26.24% | Removal rate [3]: 99.10% | Removal rate [4]: 57.2% | Percentage of oil and residue removed during flushing [5]: greater percentage | Genotoxicity in AMES testing (AMES testing): significantly lower genotoxicity | Flash point [6]: No | Removal rate [7]: 99.10% | Pressure ([1]; 5.0 °C): 9.1 psia | Pressure ([1]; 15.0 °C): 13.7 psia | Pressure ([1]; 18.5 °C): 14.7 psia | Pressure ([1]; 25.0 °C): 19.7 psia | Pressure ([1]; 35.0 °C): 27.5 psia | Pressure versus atmospheric pressure ([1]; temperature range 5 to 15 °C): lower than atmospheric

CC(F)(Cl)Cl [HCFC 141b, 1,1-dichloro-1-fluoroethane, reference compound]
Removal rate [3]: 98.40% | Removal rate [7]: 99.60%

COC(C)=O [Methyl acetate]
Removal rate [4]: 31.67%

Cl/C=C/Cl [TDCE, trans-1,2-dichloroethylene]
Removal rate [4]: 88.51% | Flash point [6]: Yes

FC(F)(F)/C=C/Cl [cis-HCFO-1233zd, 1-chloro-3,3,3-trifluoropropene]
Quantity of flushing agent remaining after drying [8]: more cis-HCFO-1233zd would remain

dichloropentafluoropropane [HCFC 225]
Flash point [6]: No
